Measurements reported in patent publication US20070197590A1, “SUBSTITUTED DIPIPERIDINE CCR2 ANTAGONISTS” (priority 2006, published 2007).
Read-outs that look alike come from different tables or passages of the source.

Legend:
[1] = tested on: MCP-1 induced calcium ion influx in THP-1 cells; experiment: MCP-1 Induced Calcium Mobilization in THP-1 Cells; type: cell-based; conditions: for IC50: 0.2 μM MCP-1, FLIPR, read-out: Inhibition of MCP-1 Induced Calcium Ion Influx IC50
Procedure, shortened: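 Fluo-3-loaded (5 μM, 45 min) THP-1 cells preincubated 15 min with compound. Calcium change after 0.2 μM MCP-1 addition read by FLIPR relative to vehicle; IC50 values derived.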

[2] = tested on: MCP-1 induced chemotaxis of THP-1 cells; experiment: MCP-1 Induced Chemotaxis in THP-1 Cells; type: cell-based; conditions: Homo sapiens, MCP-1 0.01 μg/mL, 3 hours at 37° C., read-out: Inhibition of MCP-1 Induced Chemotaxis IC50
Method: MCP-1 induced chemotaxis was run in a 24-well chemotaxis chamber. MCP-1 (0.01 μg/mL) was added to the lower chamber and 100 μL of THP-1 cells (1×10^7 cell/mL) was added to the top chamber. Varying concentrations of test compound were added to the top and bottom chambers. Cells were allowed to chemotax for 3 hours at 37° C. and 5% CO2. An aliquot of the cells that had migrated to the bottom chamber was taken and counted then compared to vehicle.
Table 3 lists IC50 values for inhibition of MCP-1 induced chemotaxis.

[3] = target: T1, CCR2 (Homo sapiens, UniProt P41597); experiment: MCP-1 Receptor Binding Assay in THP-1 Cells; conditions: THP-1 cells, 0.5 nM 125I labeled MCP-1, 2 hours at 30° C.; read-out: Inhibition of MCP-1 Binding IC50
T1 construct: host or cells: THP-1 cells
T1 sequence (P41597 1-360 isoform P41597-2): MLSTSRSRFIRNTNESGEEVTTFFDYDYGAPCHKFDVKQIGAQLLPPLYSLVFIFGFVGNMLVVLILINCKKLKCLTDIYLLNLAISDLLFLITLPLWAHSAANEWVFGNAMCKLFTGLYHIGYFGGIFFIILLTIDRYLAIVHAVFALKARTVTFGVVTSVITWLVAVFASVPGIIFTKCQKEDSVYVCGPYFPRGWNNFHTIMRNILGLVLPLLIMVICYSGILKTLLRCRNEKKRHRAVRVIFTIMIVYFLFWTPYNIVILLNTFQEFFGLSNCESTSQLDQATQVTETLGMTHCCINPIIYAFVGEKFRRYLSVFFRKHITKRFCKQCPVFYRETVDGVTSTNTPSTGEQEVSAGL
Procedure, shortened: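 Whole THP-1 cells incubated 2 h at 30° C with 0.5 nM 125I-MCP-1 and varying compound concentrations; bound radioactivity harvested on filters and counted by scintillation. Nonspecific binding with 1 μM cold MCP-1; IC50 for inhibition of binding versus vehicle.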

[4] = Homo sapiens, THP-1, THP-1 cells

Row | SMILES | IC50 [1, 4] | IC50 [2] | IC50 [3] | IC50 ([1]; THP-1 cells) | inhibition at 25 µM ([1]; Homo sapiens, THP-1, test concentration of 25 μM, given where an IC50 value was not obtained, read-out: Inhibition of MCP-1 Induced Calcium Ion Influx, percent inhibition)
1 | CS(=O)(=O)Nc1ccc2[nH]cc(C3CCN(CC(O)C4CCN(C(=O)C=Cc5cc(F)cc(F)c5)CC4)CC3)c2c1 (stereo not drawn) [Compound 41, N-{3-[1-(2-{1-[3-(3,5-difluoro-phenyl)-acryloyl]-piperidin-4-yl}-2-hydroxy-ethyl)-piperidin-4-yl]-1H-indol-5-yl}-methanesulfonamide] | 90 nM | 20 nM | 40 nM | – | –
2 | COc1ccc(C2CCN(CC(CO)C3CCN(C(=O)/C=C/c4ccc(Cl)c(Cl)c4)CC3)CC2)cc1 (stereo not drawn) [Compound 43] | 180 nM | 90 nM | 590 nM | – | –
3 | COc1ccc(C2CCN(CC(CO)C3CCN(C(=O)/C=C/c4cc(F)cc(F)c4)CC3)CC2)cc1 (stereo not drawn) [Compound 45] | 150 nM | 170 nM | 120 nM | – | –
4 | O=C(O)C(CC1CCN(C(=O)C=Cc2ccc(Cl)c(Cl)c2)CC1)N1CCC(c2c[nH]c3ccccc23)CC1 (stereo not drawn) [Compound 60, 3-{1-[3-(3,4-dichloro-phenyl)-acryloyl]-piperidin-4-yl}-2-[4-(1H-indol-3-yl)-piperidin-1-yl]-propionic acid] | 380 nM | 290 nM | 310 nM | – | –
5 | O=C(O)C(CC1CCN(C(=O)C=Cc2cc(F)cc(F)c2)CC1)N1CCC(c2c[nH]c3ccccc23)CC1 (stereo not drawn) [Compound 61, 3-{1-[3-(3,5-difluoro-phenyl)-acryloyl]-piperidin-4-yl}-2-[4-(1H-indol-3-yl)-piperidin-1-yl]-propionic acid] | 2800 nM | 240 nM | 830 nM | – | –
6 | COc1ccc(C2CCN(CC(N)C3CCN(C(=O)/C=C/c4cc(F)c(F)c(F)c4)CC3)CC2)cc1 (stereo not drawn) [Compound 65] | 40 nM | 250 nM | 80 nM | – | –
7 | COC(=O)NC(CN1CCC(c2ccc(OC)cc2)CC1)C1CCN(C(=O)C=Cc2cc(F)c(F)c(F)c2)CC1 (stereo not drawn) [Compound 67, (2-[4-(4-methoxy-phenyl)-piperidin-1-yl]-1-{1-[3-(3,4,5-trifluoro-phenyl)-acryloyl]-piperidin-4-yl}-ethyl)-carbamic acid methyl ester] | 300 nM | 700 nM | 240 nM | – | –
8 | O=C(/C=C/c1cc(F)c(F)c(F)c1)N1CCC(O)(C(O)CN2CCC(c3c[nH]c4ccccc34)CC2)CC1 (stereo not drawn) [Compound 70] | 80 nM | 10 nM | 180 nM | – | –
9 | O=C(/C=C/c1cc(Cl)cc(Cl)c1)N1CCC(O)(C(O)CN2CCC(c3c[nH]c4ccccc34)CC2)CC1 (stereo not drawn) [Compound 73] | 1 nM | 30 nM | 130 nM | – | –
10 | O=C(/C=C/c1cc(F)cc(Cl)c1)N1CCC(O)(C(O)CN2CCC(c3c[nH]c4ccccc34)CC2)CC1 (stereo not drawn) [Compound 74] | 2 nM | 80 nM | 40 nM | – | –
11 | O=C(/C=C/c1ccc(Cl)c(Cl)c1)N1CCC(O)(C(O)CN2CCC(c3c[nH]c4ccccc34)CC2)CC1 (stereo not drawn) [Compound 75] | 5 nM | 30 nM | 350 nM | – | –
12 | O=C(/C=C/c1ccc(F)c(F)c1)N1CCC(O)(C(O)CN2CCC(c3c[nH]c4ccccc34)CC2)CC1 (stereo not drawn) [Compound 78] | 40 nM | 210 nM | 370 nM | – | –
13 | O=C(/C=C/c1ccc(F)c(Br)c1)N1CCC(O)(C(O)CN2CCC(c3c[nH]c4ccccc34)CC2)CC1 (stereo not drawn) [Compound 80] | 6 nM | 90 nM | 200 nM | – | –
14 | O=C(/C=C/c1ccc(Cl)c(Cl)c1)N1CCC(C(O)CN2CCC(c3nc4ccccc4[nH]3)CC2)CC1 (stereo not drawn) [Compound 85] | 6 nM | 40 nM | 150 nM | – | –
15 | O=C(/C=C/c1cc(F)c(F)c(F)c1)N1CCC(C(O)CN2CCC(c3nc4ccccc4[nH]3)CC2)CC1 (stereo not drawn) [Compound 86] | 70 nM | 50 nM | 80 nM | – | –
16 | COc1ccc(C2CCN(CC(O)C3(O)CCN(C(=O)/C=C/c4cc(F)c(F)c(F)c4)CC3)CC2)cc1 (stereo not drawn) [Compound 88] | 980 nM | 30 nM | 170 nM | – | –
17 | COc1ccc(C2CCN(CC(O)C3(O)CCN(C(=O)/C=C/c4ccc(F)c(F)c4)CC3)CC2)cc1 (stereo not drawn) [Compound 93] | 9200 nM | 120 nM | 310 nM | – | –
18 | COc1ccc(C2CCN(CC(O)C3(O)CCN(C(=O)/C=C/c4cc(F)cc(F)c4)CC3)CC2)cc1 (stereo not drawn) [Compound 94] | 900 nM | 100 nM | 350 nM | – | –
19 | COc1ccc(C2CCN(CC(O)C3CCN(C(=S)Nc4cc(F)cc(F)c4)CC3)CC2)cc1 (stereo not drawn) [Compound 107, 4-{1-hydroxy-2-[4-(4-methoxy-phenyl)-piperidin-1-yl]-ethyl}-piperidine-1-carbothioic acid (3,5-difluoro-phenyl)-amide] | 4300 nM | 40 nM | 290 nM | – | –
20 | COc1ccc(C2CCN(CC(O)C3CCN(C(=S)Nc4ccc(Br)c(F)c4)CC3)CC2)cc1 (stereo not drawn) [Compound 110, 4-{1-hydroxy-2-[4-(4-methoxy-phenyl)-piperidin-1-yl]-ethyl}-piperidine-1-carbothioic acid (4-bromo-3-fluoro-phenyl)-amide] | – | 70 nM | 90 nM | 4300 nM | –
21 | O=C(/C=C/c1cc(F)c(F)c(F)c1)N1CCC(O)(C(O)CN2CCC(c3ccc(F)cc3)CC2)CC1 (stereo not drawn) [Compound 128] | 1900 nM | 300 nM | 110 nM | – | –
22 | O=C(/C=C/c1cc(F)cc(F)c1)N1CCC(O)(C(O)CN2CCC(c3ccc(F)cc3)CC2)CC1 (stereo not drawn) [Compound 130] | 2400 nM | 190 nM | 100 nM | – | –
23 | O=C(/C=C/c1cc(F)c(F)c(F)c1)N1CCC(O)(C(O)CN2CCC(c3ccc(C(F)(F)F)cc3)CC2)CC1 (stereo not drawn) [Compound 136] | 210 nM | 150 nM | 140 nM | – | –
24 | O=C(/C=C/c1ccc(F)c(F)c1)N1CCC(O)(C(O)CN2CCC(c3ccc(C(F)(F)F)cc3)CC2)CC1 (stereo not drawn) [Compound 137] | 1300 nM | 170 nM | 255 nM | – | –
25 | O=C(/C=C/c1cc(F)cc(F)c1)N1CCC(O)(C(O)CN2CCC(c3ccc(C(F)(F)F)cc3)CC2)CC1 (stereo not drawn) [Compound 138] | 810 nM | 60 nM | 210 nM | – | –
26 | O=C(Nc1cc(F)cc(F)c1)N1CCC(O)(C(O)CN2CCC(c3ccc(C(F)(F)F)cc3)CC2)CC1 (stereo not drawn) [Compound 142, 4-hydroxy-4-{1-hydroxy-2-[4-(4-trifluoromethyl-phenyl)-piperidin-1 yl]-ethyl}-piperidine-1-carboxylic acid (3,5-difluoro-phenyl)-amide] | – | 260 nM | 260 nM | – | 68%
27 | O=C(/C=C/c1cc(Cl)cc(Cl)c1)N1CCC(O)(C(O)CN2CCC(c3c[nH]c4ccc(N5CCOCC5)cc34)CC2)CC1 (stereo not drawn) [Compound 151] | 510 nM | 160 nM | 40 nM | – | –
28 | O=C(/C=C/c1cc(F)c(F)c(F)c1)N1CCC(O)(C(O)CN2CCC(c3c[nH]c4ccc(F)cc34)CC2)CC1 (stereo not drawn) [Compound 155] | 660 nM | 180 nM | 100 nM | – | –
29 | O=C(/C=C/c1ccc(F)c(F)c1)N1CCC(O)(C(O)CN2CCC(c3c[nH]c4ccc(F)cc34)CC2)CC1 (stereo not drawn) [Compound 156] | 4000 nM | 360 nM | 120 nM | – | –
30 | O=C(/C=C/c1cc(F)cc(F)c1)N1CCC(O)(C(O)CN2CCC(c3c[nH]c4ccc(F)cc34)CC2)CC1 (stereo not drawn) [Compound 157] | 1900 nM | 120 nM | 150 nM | – | –
